The source of these data is article PMC10452460, “In Silico, In Vitro, and In Vivo Investigations on Adapalene as Repurposed Third Generation Retinoid against Multiple Myeloma and Leukemia” (Cancers, 2023).

The structures appear in SMILES notation. pKd: −log10 of the molar value.

The assay concerns the target T1, c-MYC (Homo sapiens, UniProt P01106).
T1 construct: recombinant human c-MYC protein (ab169901, Abcam)
Briefly: microscale thermophoresis with Blue-NHS labelled c-MYC ([…]). The assay is classed as binding. On the technique in general: In MST a laser heats a spot of the sample, and binding alters the fluorescence response.

T1 sequence (P01106 16-454): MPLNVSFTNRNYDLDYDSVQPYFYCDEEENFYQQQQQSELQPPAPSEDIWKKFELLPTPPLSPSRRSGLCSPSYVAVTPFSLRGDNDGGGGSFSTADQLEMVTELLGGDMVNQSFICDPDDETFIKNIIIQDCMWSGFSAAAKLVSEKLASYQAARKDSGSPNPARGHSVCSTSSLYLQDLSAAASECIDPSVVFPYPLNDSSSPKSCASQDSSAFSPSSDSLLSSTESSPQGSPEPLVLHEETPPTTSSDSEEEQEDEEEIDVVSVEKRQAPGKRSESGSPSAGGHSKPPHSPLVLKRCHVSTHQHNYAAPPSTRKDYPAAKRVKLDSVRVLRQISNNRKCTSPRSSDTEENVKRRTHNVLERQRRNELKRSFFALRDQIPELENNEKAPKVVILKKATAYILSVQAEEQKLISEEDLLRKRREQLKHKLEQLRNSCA

For the molecule `COc1ccc(-c2ccc3cc(C(=O)O)ccc3c2)cc1C12CC3CC(CC(C3)C1)C2` [adapalene], the pKd (usually the negative decadic logarithm of the Kd, by convention in mol/L) is 5.52.
